Measurements: ChEMBL document CHEMBL4513161, “CO-ADD screening of MMV (CH) - Pandemic Response Box” (2021)
Values after ≈ are worked out from the molar mass of the structure shown.

Experiments:
HEK293 = assay: cells; assay type: functional, Homo sapiens, ATCC CRL1573; conditions: Homo sapiens, ATCC CRL1573, HEK293; ASSAY_TEST Inhibition of Cell Viability; detection method Resazurin; Fluorescence (ex560/em590); MEDIA DMEM with 10% FBS; plate type 384well; TC; CORNING #3712; time 18 hr; read-out: CC50
Pseudomonas aeruginosa [1] = assay: Antibacterial activity against Pseudomonas aeruginosa PAO397 [PAO1 d(mexAB-oprM) d(mexCD-oprJ) d(mexEF-oprN) d(mexJKL) d(mexXY) d(opmH)] (CO-ADD:GN_211); MIC in CAMBH media using NBS plates, by OD(600); assay type: functional; conditions: ASSAY_TEST Inhibition of Bacterial Growth, detection method Absorption (OD600), MEDIA CAMHB, plate type 384well, CORNING #3640, time 18 hr
Staphylococcus aureus = assay: microbe, parasite or virus in culture; conditions: ATCC 43300, 18 h, ASSAY_TEST Inhibition of Bacterial Growth, detection method Absorption (OD600), MEDIA CAMHB, plate type 384well, NBS, CORNING #3640
Description: Antibacterial activity against Staphylococcus aureus MRSA ATCC 43300 (CO-ADD:GP_020); MIC in CAMBH media, using NBS plates, by OD(600)

Escherichia coli = assay: microbe, parasite or virus in culture; conditions: ATCC 25922, 18 h, ASSAY_TEST Inhibition of Bacterial Growth, detection method Absorption (OD600), MEDIA CAMHB, plate type 384well, NBS, CORNING #3640
Description: Antibacterial activity against Escherichia coli ATCC 25922 (CO-ADD:GN_001); MIC in CAMBH media using NBS plates, by OD(600)

Klebsiella pneumoniae = assay: microbe, parasite or virus in culture; conditions: ATCC 700603, 18 h, ASSAY_TEST Inhibition of Bacterial Growth, detection method Absorption (OD600), MEDIA CAMHB, plate type 384well, NBS, CORNING #3640
Description: Antibacterial activity against Klebsiella pneumoniae MDR ATCC 70063 (CO-ADD:GN_003); MIC in CAMBH media using NBS plates, by OD(600)

Pseudomonas aeruginosa [2] = assay: microbe, parasite or virus in culture; conditions: ATCC 27853, 18 h, ASSAY_TEST Inhibition of Bacterial Growth, detection method Absorption (OD600), MEDIA CAMHB, plate type 384well, NBS, CORNING #3640
Description: Antibacterial activity against Pseudomonas aeruginosa ATCC 27853 (CO-ADD:GN_042); MIC in CAMBH media using NBS plates, by OD(600)

Acinetobacter baumannii = assay: microbe, parasite or virus in culture; conditions: ATCC 19606, 18 h, ASSAY_TEST Inhibition of Bacterial Growth, detection method Absorption (OD600), MEDIA CAMHB, plate type 384well, NBS, CORNING #3640
Description: Antibacterial activity against Acinetobacter baumannii ATCC 19606 (CO-ADD:GN_034); MIC in CAMBH media using NBS plates, by OD600

Candida albicans = assay: microbe, parasite or virus in culture; conditions: ATCC 90028, ASSAY_TEST Inhibition of Fungal Growth, detection method Absorption (OD530), plate type 384well, NBS, CORNING #3640
Description: Antifungal activity against Candida albicans ATCC 90028 (CO-ADD:FG_001); MIC in YNB media using NBS plates, by OD630

Description for Cryptococcus neoformans: Antifungal activity against Cryptococcus neoformans H99 ATCC 208821 (CO-ADD:FG_002); MIC in YNB media using NBS plates, by Resazurin OD(600-570)

SMILES	CC50 (HEK293) [µM]	MIC (Pseudomonas aeruginosa [1]) [µM]	MIC (Cryptococcus neoformans) [µM]	MIC (Staphylococcus aureus) [µM]	MIC (Escherichia coli) [µM]	MIC (Klebsiella pneumoniae) [µM]	MIC (Pseudomonas aeruginosa [2]) [µM]	MIC (Acinetobacter baumannii) [µM]	MIC (Candida albicans) [µM]
O=C(Nc1ccc(N2CCN(C(=O)c3ccccc3)CC2)cc1)c1ccc2c(c1)OCO2	> 20	> 20	> 20	> 20	> 20	> 20	> 20	> 20	> 20
O=c1nc(N2CCN(CC3CCCCC3)CC2)sc2c([N+](=O)[O-])cc(C(F)(F)F)cc12 [MACOZINONE]	> 20	> 20	> 20	> 20	> 20	> 20	> 20	> 20	> 20
CCc1nc(N)nc(N)c1C#CCc1ccccc1	> 20	> 20	> 20	20 (≈ 5.05 µg/mL)	> 20	> 20	> 20	> 20	> 20
Cn1c2ccccc2c(=O)c2c(O)cccc21	> 20	> 20	> 20	> 20	> 20	> 20	> 20	> 20	> 20
COc1cc(C2C3=C(CC(C)(C)CC3=O)Nc3ccccc3N2C(C)=O)ccc1OCc1ccccc1 (stereo unspecified)	> 20	> 20	> 20	> 20	> 20	> 20	> 20	> 20	> 20
CCOC(=O)/C=C/[C@H](C[C@@H]1CCNC1=O)NC(=O)[C@@H](CC(=O)[C@@H](NC(=O)c1cc(C)on1)C(C)C)Cc1ccc(F)cc1	> 20	> 20	> 20	> 20	> 20	> 20	> 20	> 20	> 20
CCc1cc(O)c(Oc2ccc(C(N)=O)cc2F)cc1F	> 20	> 20	> 20	≤ 0.156	2.5 (≈ 0.733 µg/mL)	> 20	10 (≈ 2.93 µg/mL)	> 20	> 20
Cc1ccc(Oc2ccccc2-c2csc(N=C3NCCCN3)n2)c(C)c1 [ABAFUNGIN]	> 20	> 20	> 20	> 20	> 20	> 20	> 20	> 20	0.312 (≈ 0.118 µg/mL)
O=c1oc2ccc(Br)cc2cc1CSc1ncc[nH]1	> 20	> 20	> 20	> 20	> 20	> 20	> 20	> 20	> 20
O=C(Nc1ccc(F)cc1)c1nn(-c2ccccc2)c(=O)cc1Cl	8.2	> 20	> 20	> 20	> 20	> 20	> 20	> 20	> 20
O=C(CP(=O)(O)O)NCCc1cccc(Oc2ccccc2)c1	> 20	> 20	> 20	> 20	> 20	> 20	> 20	> 20	> 20
O=C(Nc1ccc(-c2ccccc2)cc1)C1=C(O)C(Cc2ccccc2)OC1=O (stereo unspecified)	> 20	> 20	> 20	> 20	> 20	> 20	> 20	> 20	> 20
Cc1c(CN(C)C(=O)/C=C/c2cnc3c(c2)C(C)(C)C(=O)N3)oc2ccccc12	> 20	> 20	> 20	1.25 (≈ 0.487 µg/mL)	> 20	> 20	> 20	> 20	> 20
COc1ccc(-n2cnc3cc(NCc4ccco4)ccc32)cc1	> 20	> 20	> 20	> 20	> 20	> 20	> 20	> 20	> 20
OC1O[C@H](CSc2ccc(F)cc2)[C@@H](O)[C@H]1O (stereo partly specified)	> 20	> 20	> 20	> 20	> 20	> 20	> 20	> 20	> 20
Cc1onc(-c2ccccc2Cl)c1C(=O)N[C@@H]1C(=O)N2[C@@H]1SC(C)(C)[C@@H]2C(=O)O [CLOXACILLIN]	> 20	> 20	> 20	1.25 (≈ 0.545 µg/mL)	> 20	> 20	> 20	> 20	> 20
O=C1NC(=O)C(Br)=C1Br	3.28	> 20	10 (≈ 2.55 µg/mL)	> 20	> 20	> 20	> 20	> 20	20 (≈ 5.1 µg/mL)
O=c1ccc2ncc(=O)n3c2n1CC3CN1CCC(NCc2cc3c(cn2)OCCC3)CC1 (stereo unspecified)	> 20	≤ 0.156	> 20	0.625 (≈ 0.28 µg/mL)	2.5 (≈ 1.12 µg/mL)	> 20	20 (≈ 8.97 µg/mL)	10 (≈ 4.49 µg/mL)	> 20
O=C(CCc1ccc2c(c1)OCO2)NCc1ccc(-c2ccccc2F)cc1	> 20	> 20	> 20	> 20	> 20	> 20	> 20	> 20	> 20
O=C(O)C[C@H]1CC[C@H](c2ccc(-c3ccc(Nc4ccc(C(F)(F)F)nc4)cn3)cc2)CC1	> 20	> 20	> 20	> 20	> 20	> 20	> 20	> 20	> 20
NNC(=O)c1ccncc1 [ISONIAZID]	> 20	> 20	> 20	> 20	> 20	> 20	> 20	> 20	> 20
CCN(CC)CCCC(C)Nc1ccnc2cc(Cl)ccc12 (stereo unspecified) [CHLOROQUINE]	> 20	> 20	> 20	> 20	> 20	> 20	> 20	> 20	> 20
CCOC(=O)N[C@@H]1CC[C@@H]2[C@@H](C1)C[C@H]1C(=O)O[C@H](C)[C@H]1[C@H]2/C=C/c1ccc(-c2cccc(F)c2)cn1 [VORAPAXAR]	> 20	> 20	> 20	> 20	> 20	> 20	> 20	> 20	> 20
c1ccc(Cn2c(-c3ccccn3)nc3ccccc32)cc1	> 20	> 20	> 20	> 20	> 20	> 20	> 20	> 20	> 20
Cc1nc(-c2ccc(C3N(C)c4ccc(F)cc4C(=O)N3c3ccccc3)s2)cs1 (stereo unspecified)	> 20	> 20	> 20	> 20	> 20	> 20	> 20	> 20	> 20
Cc1cc(O)c2c(c1)C(=O)c1c(I)c(O)c(I)c(O)c1C2=O	> 20	> 20	> 20	20 (≈ 10.4 µg/mL)	> 20	> 20	> 20	> 20	> 20
COc1ccc(SCC(=O)N2c3ccccc3Sc3ccccc32)cc1	> 20	> 20	> 20	> 20	> 20	> 20	> 20	> 20	> 20
Clc1cc(Cl)c2c(c1)CCc1ccccc1C2n1ccnc1 (stereo unspecified)	> 20	20 (≈ 6.58 µg/mL)	20 (≈ 6.58 µg/mL)	20 (≈ 6.58 µg/mL)	> 20	> 20	> 20	> 20	5 (≈ 1.65 µg/mL)
O=C(NC(=O)N1CCCc2ccccc21)c1cccc(Cl)c1	> 20	> 20	> 20	> 20	> 20	> 20	> 20	> 20	> 20
